Test results: EP0057900B1, “Animal feed additive for improving growth” (Dr. Karl Thomae GmbH, priority 1981, dated 1982)
Where a name gives a salt, the structure may show the parent alone.

Assays:
[1] = Acute toxicity in mice after i.v. administration; assay type: in vivo, Mäusen; details: mouse, in vivo, iv, mean weight 22 g, i. v. in physiological saline, dose at which 50% of animals died, observation time 14 days, Litchfield and Wilcoxon
From the text: (§1) Die akute Toxizität der zu untersuchenden Substanzen, welche in physiologischer Kochsalzlösung gelöst wurden, wurde an Mäusen mit einem durchschnittlichen Gewicht von 22 g nach i. v. Gabe (0.1 mt/10 g) bestimmt. Es wurde die LD50, die Dosis bei welcher 50% der Tiere nach einer Beobachtungszeit von 14 Tagen verstarben, nach der Methode von Litchfield und Wilcoxon (J. Pharmacol. exp. Ther. 96, 99-113 (1949)) berechnet.

Mäusen = assay: Acute toxicity in mice after i.v. administration; assay type: in vivo; details: mean weight 22 g, i. v. in physiological saline, dose at which 50% of animals died, observation time 14 days, Litchfield and Wilcoxon
From the text: as §1

[2] = test system: Fettsäuregehalt des Blutes; assay: Lipolytic effect in rabbits (blood fatty acid content, method of Duncombe); assay type: in vivo, Kaninchen; details: Oryctolagus cuniculus, iv; male and female rabbits, mean weight 2,3 kg; i. v. in physiological saline; dose causing a 50% reduction of blood fatty acid content; calculated according to Fieler; read-out: ED50 µg/kg i. v.
From the text: Beispielsweise wurde die lipolytische Wirkung der Verbindungen • A = 1-(4-Amino-3-cyan-5-fluor-phenyl)-2-tert.butylamino-äthanol-hydrochlorid, • B = 1-(4-Amino-3-cyan-5-fluor-phenyl)-2-isopropylamino-äthanol-hydrochforid, • C = 1-(4-Amino-3-cyan-5-fluor-phenyl)-2-cyclobutylamino-äthanol-hydrochlorid, • D = 1-(4-Amino-3-chlor-5-cyan-phenyl)-2-isopropylamino-äthanol-hydrochlorid, • E = 1-(4-Amino-3-chlor-5-cyan-phenyl)-2-cyclobutylamino-äthanol-hydrochlorid, • F = 1-(4-Amino-3-chlor-5-cyan-phenyl)-2-cyclopentylamino-äthanol-hydrochlorid und • G = 1-(4-Amino-3-chlor-5-trifluormethylphenyl)-2-cyclobutylamino-äthanor-hydrochlorid
an Kaninchen wie folgt geprüft:
Die zu untersuchenden Substanzen wurden männlichen und weiblichen Kaninchen mit einem durchschnittlichen Gewicht von 2,3 kg, gelöst in physiologischer Kochsalzlösung i. v. injiziert (0,2 mg/kg). Der Fettsäuregehalt des Blutes wurde nach der Methode von Duncombe (Biochem. J. 88, 7-10 (1963)) bestimmt. Es wurde die EDso, die Dosis, die eine 50%ige Senkung des Fettsäuregehaltes bewirkt, nach Fieler (Quart. J. Pharm. Pharmacol. 17, 117―123 (1964)) berechnet.

SMILES: CC(C)(C)NCC(O)c1cc(F)c(N)c(C#N)c1 (stereo not shown) [A, 1-(4-Amino-3-cyan-5-fluor-phenyl)-2-tert.butylamino-äthanol-hydrochlorid]
- LD50 at 336 h [1]: 73.6 mg/kg

SMILES: CC(C)NCC(O)c1cc(F)c(N)c(C#N)c1 (stereo not shown) [B, 1-(4-Amino-3-cyan-5-fluor-phenyl)-2-isopropylamino-äthanol-hydrochforid]
- LD50 mg/kg i. v. (Mäusen): 66,4 mg/kg

SMILES: CC(C)NCC(O)c1cc(Cl)c(N)c(C#N)c1 (stereo not shown) [D, 1-(4-Amino-3-chlor-5-cyan-phenyl)-2-isopropylamino-äthanol-hydrochlorid]
- LD50 at 336 h [1]: 81 mg/kg

SMILES: N#Cc1cc(C(O)CNC2CCCC2)cc(Cl)c1N (stereo not shown) [F, 1-(4-Amino-3-chlor-5-cyan-phenyl)-2-cyclopentylamino-äthanol-hydrochlorid]
- ED50 [2]: 0.16 µg/kg
- LD50 mg/kg i. v. (Mäusen): 39,1 mg/kg

SMILES: Nc1c(Cl)cc(C(O)CNC2CCC2)cc1C(F)(F)F (stereo not shown) [G, 1-(4-Amino-3-chlor-5-trifluormethylphenyl)-2-cyclobutylamino-äthanor-hydrochlorid]
- ED50 [2]: 0.46 µg/kg

SMILES: N#Cc1cc(C(O)CNC2CCC2)cc(Cl)c1N (stereo not shown) [Verbindung E, 1-(4-Amino-3-chlor-5-cyan-phenyl)-2-cyclobutylamino-äthanol-hydrochlorid]
- LD50 at 336 h [1]: 43.9 mg/kg
